In a melting point compilation (Tetko et al.; mined from patent text by program, amines drawn as free bases though some values may be those of a salt):

SMILES	melting point [°C]
CS(=O)(=O)Nc1ccc2c(c1)CCN(Cc1ccc3cc(NS(C)(=O)=O)ccc3n1)CC2	207 to 210
Cc1nc2c(N)nc3cccnc3c2n1CC1(O)CCN(C(=O)N2CCOCC2)CC1	245 to 248
CC(C)(C)OC(=O)N1CCN(CCO[Si](C)(C)C(C)(C)C)C1=O	35.5 to 45.5
O=c1[nH]c2ccc(Cl)cc2c(=O)n1N1CCOCC1	335
OCC12CCCN(CCC1)C2	64 to 65.5
Cc1nc2ccccc2c(NCC(O)CO)c1Br (centres undefined)	140 to 141
CC(=O)NC[C@H]1CN(c2cccc(F)c2)C(=O)O1	140
Cc1ccc2c(c1Cl)S(=O)(=O)NCN2C1CC1	230 to 232
OCc1ccc2c(n1)COC(c1ccccc1)O2 (centres undefined)	85 to 89
O=C1CCc2ccc(OCCCCN3CCCN(c4cccc(Cl)c4Cl)CC3)cc2N1	88 to 89
c1cc(CCC(Cn2ccnc2)Sc2ccc(N3CCCC3)cc2)ccn1 (centres undefined)	148 to 149
CCn1c(=O)ccn(-c2ccc([N+](=O)[O-])cc2)c1=O	182
C=C(CC)C(=O)c1cc2c(c(Cl)c1Cl)OC(C(=O)O)C2 (centres undefined)	148
O=C(CC1CCCCC1)Nc1ccc2oc3c(c2c1)CCCC3	189 to 191
OC1CSC(Oc2cccc(-c3cc(Cl)ccn3)c2)C(O)C1O (centres undefined)	97 to 105
COC1=CC2(C)CCc3c(OC)ccc(OC)c3C2=CC1=O (centres undefined)	184 to 186
Cc1c(C2=NNC(=O)SC2C)ccc2c1C(C)(C)C(=O)N2 (centres undefined)	279
CC(C(=O)OC(C)(C)C)c1ccc(N2Cc3ccc(Br)cc3C2=O)cc1 (centres undefined)	164 to 165
CCCN1C(=O)C2(CC)CC(c3ccc(N)cc3)(C2)C1=O	124 to 125
CC=COC(=O)C1(S(=O)(=O)C(C)(C)C)C=CC=CC1C[C@H](N)C(=O)O (some centres undefined)	88 to 89.5
C/C(=C\c1cccc2c1NCCNC2=O)CCCC(=O)O	257 to 259
Cn1c(=S)n(CCN2CCC(Nc3nc4ccccc4n3Cc3ccco3)CC2)c(=O)c2ccccc21	188
O=C1c2ccc(Cl)cc2C(=O)N1C1CCN(CCc2c[nH]c3ccccc23)CC1	188 to 190
CN1CCN(c2ccc(C(=O)N3CCCCc4ccccc43)c(Cl)c2)CC1	138 to 140

SMILES	melting point [°C]
COc1cc([N+](=O)[O-])c2ncccc2c1OCC(F)(F)F	109 to 115
N#Cc1cc2c(=O)c3ccccc3ccn2c1	197
CC(C)NC1=NS(=O)(=O)c2ccc(C(C)C)cc2N1	237 to 239
CCOc1cc2c3cc(OCC)c(OCC)cc3c3c(OC)ccc(OC)c3c2cc1OCC	157 to 158
Nc1ccccc1OC1CCCC1	87 to 87.5
COc1cc(N)c(Cl)cc1C(=O)NCC1CCN(CCCCNC(=O)c2cccc3ccccc23)CC1	138 to 141
COC(=O)c1ccccc1C(=O)Nc1cc(C(F)(F)F)on1	116 to 117
CCc1nc2c(cnn2CC)c(NC2CCOCC2)c1CNC(=O)c1cccc(C(=O)NCc2ccc(OC)c(-c3cccc(CN4CCNCC4)c3)c2)c1	138 to 140
CCCc1cc(N2CCN(c3ccncc3)CC2)ccc1OCCCC(=O)O	207 to 209
CC(Oc1ccc2c(c1)C(O)C(Cc1cccc(C(=O)O)c1)CO2)c1ccc2ccccc2n1 (centres undefined)	70 to 73
CNC(=O)c1cccc(F)c1Nc1nc(Nc2ccc3c(c2)C(C)(C)CCC(=O)N3)ncc1Cl	153
COC(=O)c1cc2c(Cl)cccc2s1	84 to 86
CCCCCC(C)C(C)c1cc(O)c2c(c1)oc(=O)c1ccncc12 (centres undefined)	122 to 123
COc1c2c(cc3ccncc13)OCO2	144 to 145
O=C(NCc1cccc(-c2nc(=O)c3ccccc3s2)n1)C(F)(F)F	226 to 227
CNCCOc1ccc(C2=C(c3ccccc3)CCCc3cc(O)ccc32)cc1	184 to 187
CC1(C)CNC(=S)NC1	225 to 228
CCOCc1nc2c(N)nc3c(c2n1CCCCCS(N)(=O)=O)CCCC3	203 to 205
Cc1ccc(S(=O)(=O)N(Cc2cc(C(C)(C)C)c(O)c(C(C)(C)C)c2)c2ccc(Cl)nc2)cc1	152 to 153
O=C(O)c1ccc(NC(=O)C(CC2CCCC2)c2ccc(-c3cccc4ccccc34)cc2)nc1 (centres undefined)	155 to 158
c1cc(OCCCCc2nnn[nH]2)cc(OCc2ccc3ccccc3n2)c1	120 to 130
Cc1[nH]c(-c2ccccc2)c(NC(=O)CN2C(=O)c3ccccc3C2=O)c1C(=O)c1ccccc1	288 to 290
O=C(C=C(O)c1cccs1)C1CCN(Cc2ccccc2)CC1	80 to 83
CC(C)(C)OC(=O)Nc1ccc(-c2ccc(OCc3ccccc3)nc2)cc1N	176 to 177

More lines, now with the values ahead:

melting point [°C]	SMILES
225 to 227	COc1ccc(C(=O)Nc2c(C)c(C)c3oc(C)c(-c4ccc(F)cc4)c3c2C)cc1
174 to 176	O=C1N(CC2CCCO2)c2ccccc2C12COc1cc3c(cc12)OCCO3 (centres undefined)
120 to 121	CC(C)(C)c1ccc2c(c1)Cc1cc(C(C)(C)C)ccc1-2
244	CCCCCCCCCCCCOc1ccc(O)c(C(=O)NNC(=O)c2ccccc2O)c1
102 to 105	CCOc1cc(N)ccc1C(O)c1cc(C)ccn1 (centres undefined)
69.5 to 71	CCSCC(=C1NCCCS1)[N+](=O)[O-]
189	COc1ccc(C(=O)OCCN2CCC(Nc3nc4ccccc4n3Cc3ccc(F)cc3)CC2)cc1
198 to 199	CCOC(=O)NC(=N)c1ccc(-n2cc(C)n(-c3ccc(CCC(=O)OC)cc3)c2=O)cc1
213 to 215	CNC(=O)c1cc(=O)c(-c2ccc(OC)c(OC)c2)co1
140 to 146	COc1ccccc1C(=O)NS(=O)(=O)c1ccc(NC(=O)c2ccc(Cl)cc2Cl)cc1
122 to 128	Cc1noc(NS(=O)(=O)c2ccccc2-c2ccc(-c3ncco3)cc2CN(C)C(=O)c2ccc(F)c(F)c2)c1C
129 to 131	CCOC(=O)C(C)(C)Oc1ccc(CNC(=O)c2sc(-c3ccc(C(C)C)cc3)nc2C)cc1C
94	Cc1ccc(S(=O)(=O)Oc2ccc(S(=O)(=O)c3ccoc3C(C)C)cc2)cc1
149 to 152	CC(C)(C)c1cccc2nc(C(F)(F)F)[nH]c12
94 to 96	COc1cccc(-c2nc3n(n2)CCc2ccccc2-3)c1
248 to 250	CCOC(=O)c1cccc2nc(CNC)n(Cc3ccc(-c4ccccc4-c4nnn[nH]4)cc3)c12
197 to 199	CC1(C)Oc2ccc3nc(C(N)=O)ccc3c2C(NCCc2ccccc2)C1O (centres undefined)
138	CCNC(=O)C(=O)[C@H](Cc1ccccc1)NC(=O)[C@H](CC(C)C)NC(=O)OCCOC
126 to 128	CC(=O)Oc1c(C)nc(N(C)C)nc1-c1ccccc1
145 to 146	CC(C)(Oc1ccc(CCNC(=O)C=Cc2ccccc2Cl)cc1)C(=O)O
114 to 115	COc1ccc(C2=NN(C3CCCCCC3)C(=O)[C@H]3CC=CC[C@@H]23)c2c1OC(C)(C)C2 (relative stereo)
81 to 82	CC(C)(CO)N1CC(COc2cccc(Cl)c2)OC1=O (centres undefined)
62 to 64	O=c1oc2ccccc2n1CCCCl
50 to 53.5	C=C(c1ccc(NC(=O)OC(C)(C)C)c(C)c1)C(F)(F)C(F)(F)C(F)(F)F
163 to 165	CCOC(CNC(=N)NN1CCc2cc(Cl)ccc21)OCC
101 to 102	CN=C(NC)Nc1ccccc1-c1ccccc1

melting point [°C]	SMILES
178 to 180	COCCOc1cc2ncc(C#N)c(Cl)c2cc1OC
267 to 268	CC(=O)N(C)Nc1ccc(CCn2cnc3cc(-c4ccc(Cl)cc4)sc3c2=O)cc1
195 to 197	CN(C)c1ccc(C2OC(=O)c3c(Cl)c(Cl)c(Cl)c(Cl)c32)c(N(C)C)c1 (centres undefined)
74 to 77	Nc1c(Cl)cc(C(O)CNCCCCOCCSCCc2ccccc2)cc1Cl (centres undefined)
282 to 283	Nc1cccnc1-c1ccc2[nH]nc(Nc3nccs3)c2c1
115 to 117	Cc1ccc(S(=O)(=O)OCC2Cc3cc(Cl)cc(-c4ccsc4)c3O2)cc1 (centres undefined)
> 300	O=C1C=c2c(c3c4ccccc4sc3c3[nH]c4ccccc4c23)=N1
52 to 55	CCCCCCCOc1c(OC)cc([N+](=O)[O-])c2nccc(C)c12
> 335	O=c1c(-c2ccccc2)c[nH]cc1-c1ccccc1
242 to 243	CCCOc1ccc(F)cc1-c1ccc(C#N)c(=O)[nH]1
212	CC(C)(C)OC(=O)[C@H]1C[C@@H](S(=O)(=O)c2ccccc2)[C@@H](c2ccccc2)N1C(=O)CNC(=O)Nc1cccc(C(=O)OCc2ccccc2)c1 (racemic)
185 to 186	CC(=O)NC[C@H]1CN(c2ccc(N3CCS(=O)CC3)cc2)C(=O)O1
118 to 120	CCN1N=C(c2ccc([N+](=O)[O-])cc2)C(C)(C)C1=O
121 to 122	COCCOc1cc(N)c(Cl)cc1C(=O)OC
131 to 136	COc1cc(C(=O)NS(=O)(=O)c2ccccc2Cl)ccc1Cc1cn(C)c2ccc(CC(C)NC(=O)N(C)C)cc12 (centres undefined)
114 to 115	COc1cc(O[C@@H](C)C(=O)O)c(Cl)cc1Cl
158 to 160	Cc1cc2cc(CN3CCCC3)cnc2cc1NC(=O)c1ccc(-c2ccc(F)cc2F)cc1
133	COc1ccc(C2CSc3ccccc3N(CCO)C2=O)cc1 (centres undefined)
70.5 to 70.6	COc1ccc2c(c1)CC(C)CC2=O (centres undefined)
63 to 65	CCc1cc(N)c([N+](=O)[O-])cc1CC
97 to 107	CC(C)OC(=O)Cn1c(=O)n(C)c(=O)n(-c2cc(N=c3sc(=O)n4n3CCCC4)c(F)cc2Cl)c1=O
109 to 111	COC(=O)NC1CCc2c(ccc(OC)c2OC)C1 (centres undefined)
241 to 243	COc1ccc(C2CCN(C(=O)Nc3ccc4cc(CN5CCCC5)cnc4c3)CC2)cc1
155	CCOc1ccc2[nH]c(=O)n(N3CCOCC3)c2c1
201 to 202	COc1cc2oc(=O)c(C)c(C)c2cc1OCCN1CCN(c2cccc3[nH]ccc23)CC1
